Source: patent US10464927B2, “2,4-disubstituted pyrimidines as CDK inhibitors” (Shanghai Xunhe Pharmaceutical Technology Co. Ltd., priority 2016, dated 2019)

Key:
[1] = molecular target: CDK4 (Homo sapiens (Human), UniProt P11802); assay: CDK4 protein kinase activity, Caliper mobility shift assay; assay type: biochemical; conditions: GST-CDK4(1-303 end), substrate Peptide FAM-P8, 28° C. for 3 h
Protocol: (§1) activity assay: The CDK4 protein kinase activity was measured using the Caliper mobility shift assay (see J. Biomol. Screen, 2009, PP31). The test compound was dissolved in DMSO and diluted with a kinase buffer solution (20 mM HEPES-pH 7.5, 0.01% Triton X-100, 10 mM MgCl2, 2 mM DTT) and 5 μL of compound at 5-fold final concentration of reaction dissolved in 10% DMSO was added in a 384-well plate. The compound-free control well was 5 μL of 10% DMSO, and the no-activity control well was 5 μL of kinase buffer. 10 μL of a 2.5-fold diluted CDK4 enzyme solution (GST-CDK4(1-303 end)) was added and incubated at room temperature for 10 min, and then 10 μL of the 2.5-fold diluted substrate solution Peptide FAM-P8 was added. The reaction was stopped by adding 25 μL of stop solution after incubation at 28° C. for 3 h, and the conversion rate data was read on a Caliper EZ Reader II (Caliper Life Sciences) and the conversion rate was converted to inhibition rate data according to above method. Among them, the inhibition rate %=(max−conversion)/(max−min)×100%.

[2] = molecular target: CDK6 (Homo sapiens (Human), UniProt Q00534); assay: CDK6 protein kinase activity, Caliper mobility shift assay; assay type: biochemical; conditions: GST-CDK6(1-326 end), substrate Peptide FAM-P8, 28° C. for 3 h
CDK6, sequence (Q00534 whole entry): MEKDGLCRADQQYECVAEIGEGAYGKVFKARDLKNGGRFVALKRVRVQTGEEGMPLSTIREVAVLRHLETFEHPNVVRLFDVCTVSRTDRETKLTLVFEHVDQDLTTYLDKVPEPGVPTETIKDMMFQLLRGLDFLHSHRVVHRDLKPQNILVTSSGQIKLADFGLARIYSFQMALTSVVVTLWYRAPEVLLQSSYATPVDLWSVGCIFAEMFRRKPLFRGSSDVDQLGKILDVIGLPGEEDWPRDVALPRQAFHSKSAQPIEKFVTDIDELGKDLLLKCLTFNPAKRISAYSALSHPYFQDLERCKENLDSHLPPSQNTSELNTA
CDK6, sequence (P30281 whole entry partner): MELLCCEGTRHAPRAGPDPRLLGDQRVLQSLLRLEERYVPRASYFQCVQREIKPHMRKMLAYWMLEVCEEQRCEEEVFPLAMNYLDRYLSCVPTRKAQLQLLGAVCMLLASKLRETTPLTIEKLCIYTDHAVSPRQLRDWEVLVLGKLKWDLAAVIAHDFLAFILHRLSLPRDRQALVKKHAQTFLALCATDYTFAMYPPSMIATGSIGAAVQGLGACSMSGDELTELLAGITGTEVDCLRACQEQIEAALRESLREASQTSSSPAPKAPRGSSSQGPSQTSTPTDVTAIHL
Protocol: as §1, with “Activity Assay:” for “activity assay:”, “CDK6” for “CDK4”, “(GST-CDK6(1-326” for “(GST-CDK4(1-303”

CDK4, sequence (P11802 whole entry): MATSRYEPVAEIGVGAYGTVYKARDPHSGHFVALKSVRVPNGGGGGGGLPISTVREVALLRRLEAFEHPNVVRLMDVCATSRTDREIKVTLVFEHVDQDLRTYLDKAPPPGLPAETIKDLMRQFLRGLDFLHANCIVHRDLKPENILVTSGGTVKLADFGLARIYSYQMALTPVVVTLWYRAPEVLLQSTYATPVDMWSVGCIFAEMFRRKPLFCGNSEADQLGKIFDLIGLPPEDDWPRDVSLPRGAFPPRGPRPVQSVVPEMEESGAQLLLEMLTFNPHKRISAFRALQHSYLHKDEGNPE
CDK4, sequence (P30281 whole entry partner): as the sequence (P30281 whole entry partner) above

| SMILES | IC50 [1] [nM] | IC50 [2] [nM] |
| --- | --- | --- |
| CC(=O)c1c2ccc(-c3nc(Nc4ccc(N5CCNCC5)cn4)ncc3F)nc2nn1C1CC1 [Compound I-29, N-(5-(piperazin-1-yl)-pyridin-2-yl)-5-fluoro-4-(2-cyclopropyl-3-acetyl-2H-7-azaindazol-6-yl)pyrimidin-2-amine] | ≤ 20 | ≤ 20 |
| CCN1CCN(Cc2ccc(Nc3ncc(F)c(-c4ccc5c(c4)c(C(C)=O)nn5C(C)C)n3)nc2)CC1 [Compound I-44, N-(5-(4-ethylpiperazine-1-methyl)-pyridin-2-yl)-5-fluoro-4-(1-isopropyl-3-acetyl-1H-indazol-5-yl)pyrimidin-2-amine] | ≤ 20 | > 500 |
| CN(C)C(=O)c1nn(C2CCCC2)c2ccc(-c3nc(Nc4ccc(N5CCNCC5)cn4)ncc3F)cc12 [Compound I-43, N-(5-(piperazin-1-yl)-pyridin-2-yl)-5-fluoro-4-(1-cyclopentyl-3-formic acid diformamido-1H-indazol-5-yl)pyrimidin-2-amine] | ≤ 20 | ≤ 20 |
| CC(C)n1c(C(=O)N(C)C)c(F)c2c(-c3nc(Nc4ccc(N5CCNCC5)cn4)ncc3F)ncnc21 [Compound I-10, N-(5-(piperazin-1-yl)-pyridin-2-yl)-5-fluoro-4-(5-fluoro-6-formic acid diformamido-7-isopropyl-7H-pyrrolo[2,3-d]pyrimidin-4-yl)pyrimidin-2-amine] | ≤ 20 | 20 to 100 |
| Cc1nc2cnc(-c3nc(Nc4ccc(N5CCN(C)CC5)cn4)ncc3F)nc2n1C(C)C [Compound I-47, N-(5-(4-methylpiperazin-1-yl)-pyridin-2-yl)-5-fluoro-4-(9-isopropyl-8-methyl-9H-purin-2-yl)pyrimidin-2-amine] | ≤ 20 | 20 to 100 |
| CC(C)n1c(C(=O)N(C)C)cc2c(F)c(-c3nc(Nc4ccc(N5CCNCC5)cn4)ncc3F)ccc21 [Compound I-28, N-(5-(piperazin-1-yl)-pyridin-2-yl)-5-fluoro-4-(1-isopropyl-2-formic acid diformamido-1H-4-fluoroindol-5-yl)pyrimidin-2-amine] | ≤ 20 | 20 to 100 |
| CN(C)C(=O)c1cc2cc(-c3nc(Nc4ccc(N5CCNCC5)cn4)ncc3F)ccc2n1C1CCCC1 [Compound I-14, N-(5-(piperazin-1-yl)-pyridin-2-yl)-5-fluoro-4-(1-cyclopentyl-2-formic acid diformamido-1H-indol-5-yl)pyrimidin-2-amine] | ≤ 20 | ≤ 20 |
| CN(C)C(=O)c1c2ccc(-c3nc(Nc4ccc(N5CCNCC5)cn4)ncc3F)c(F)c2nn1C [Compound I-31, N-(5-(piperazin-1-yl)-pyridin-2-yl)-5-fluoro-4-(2-methyl-3-formic acid diformamido-2H-7-fluoro-indazol-6-yl)pyrimidin-2-amine] | ≤ 20 | ≤ 20 |
| Cn1nc2nc(-c3nc(Nc4ccc(N5CCNCC5)cn4)ncc3F)ccc2c1C1CCCC1 [Compound I-12, N-(5-(piperazin-1-yl)-pyridin-2-yl)-5-fluoro-4-(2-methyl-3-cyclopentyl-2H-7-azaindazol-6-yl)pyrimidin-2-amine] | ≤ 20 | ≤ 20 |

The next lines start with the values.

| IC50 [1] [nM] | IC50 [2] [nM] | SMILES |
| --- | --- | --- |
| ≤ 20 | ≤ 20 | CCN1CCN(Cc2ccc(Nc3ncc(F)c(-c4ccc5c(c4)cc(C(=O)N(C)C)n5C4CCCC4)n3)nc2)CC1 [Compound I-22, N-(5-(4-ethylpiperazine-1-methyl)-pyridin-2-yl)-5-fluoro-4-(1-cyclopentyl-2-formic acid diformamido-1H-indol-5-yl)pyrimidin-2-amine] |
| ≤ 20 | ≤ 20 | Cc1c(C(F)(F)F)c2cc(-c3ccnc(Nc4ccc(CN5CCN(C(C)C)CC5)cn4)n3)ccc2n1C [Compound I-16, N-(5-(4-isopropylpiperazin-1-methyl)-pyridin-2-yl)-4-(1,2-dimethyl-3-trifluoromethyl-1H-indol-5-yl)pyrimidin-2-amine] |
| ≤ 20 | ≤ 20 | CCN1CCN(Cc2ccc(Nc3ncc(F)c(-c4ccc5c(ccn5C(C)C)c4)n3)nc2)CC1 [Compound I-1, N-(5-(4-ethylpiperazine-1-methyl)-pyridin-2-yl)-5-fluoro-4-(1-isopropyl-1H-indol-5-yl)-pyrimidin-2-amine] |
| 20 to 100 | 20 to 100 | CCN1CCN(Cc2ccc(Nc3ncc(F)c(-c4ccc5c(c(C)nn5C5CCCC5)c4F)n3)nc2)CC1 [Compound I-45, N-(5-(4-ethylpiperazine-1-methyl)-pyridin-2-yl)-5-fluoro-4-(1-cyclopentyl-3-methyl-4-fluoro-1H-indazol-5-yl)pyrimidin-2-amine] |
| ≤ 20 | ≤ 20 | CCN1CCN(Cc2ccc(Nc3ncc(F)c(-c4ccc5nnc(C6CC6)n5c4)n3)nc2)CC1 [Compound I-36, N-(5-(4-ethylpiperazin-1-methyl)-pyridin-2-yl)-5-fluoro-4-(3-cyclopropyl-[1,2,4]triazolo[4,3-a]pyridin-6-yl)pyrimidin-2-amine] |
| ≤ 20 | ≤ 20 | CCN1CCN(Cc2ccc(Nc3ncc(F)c(-c4ccc5nnc(C(F)(F)F)n5c4)n3)nc2)CC1 [Compound I-33, N-(5-(4-ethylpiperazine-1-methyl)-pyridin-2-yl)-5-fluoro-4-(3-trifluoromethyl-[1,2,4]triazolo[4,3-a]pyridin-6-yl)pyrimidin-2-amine] |
| ≤ 20 | > 500 | Fc1cnc(Nc2ccc(CN3CCN(C4CCCCC4)CC3)cn2)nc1-c1ccc2c(c1)c(C1CCC1)cn2C1CCCCC1 [Compound I-19, N-(5-(4-cyclohexylpiperazin-1-methyl)-pyridin-2-yl)-5-fluoro-4-(1-cyclohexyl-3-cyclobutyl-1H-indol-5-yl)pyrimidin-2-amine] |
| ≤ 20 | 20 to 100 | CCN1CCN(Cc2ccc(Nc3ncc(F)c(-c4ncnc5c4c(C#N)cn5C)n3)nc2)CC1 [Compound I-42, N-(5-(4-ethylpiperazine-1-methyl)-pyridin-2-yl)-5-fluoro-4-(5-cyano-7-methyl-7H-pyrrolo[2,3-d]pyrimidin-4-yl)pyrimidin-2-amine] |
| ≤ 20 | 100 to 500 | CCN1CCN(Cc2ccc(Nc3ncc(F)c(-c4ncnc5c4cc(C)n5C4CCCC4)n3)nc2)CC1 [Compound I-11, N-(5-(4-ethylpiperazine-1-methyl)-pyridin-2-yl)-5-fluoro-4-(6-methyl-7-cyclopentyl-7H-pyrrolo[2,3-d]pyrimidin-4-yl)pyrimidin-2-amine] |
| ≤ 20 | 100 to 500 | CCN1CCN(c2ccc(Nc3ncc(F)c(-c4ncc5nc(C)n(C(C)C)c5n4)n3)nc2)CC1 [Compound I-48, N-(5-(4-ethylpiperazin-1-yl)-pyridin-2-yl)-5-fluoro-4-(9-isopropyl-8-methyl-9H-purin-2-yl)pyrimidin-2-amine] |
| ≤ 20 | ≤ 20 | CC(=O)c1cc2cc(-c3nc(Nc4ccc(N5CCNCC5)cn4)ncc3F)ccc2n1C(C)C [Compound I-23, N-(5-(piperazin-1-yl)-pyridin-2-yl)-5-fluoro-4-(1-isopropyl-2-acetyl-1H-indol-5-yl)pyrimidin-2-amine] |
| ≤ 20 | 20 to 100 | CC(C)n1c(C2CCCC2)cc2cc(-c3nc(Nc4ccc(N5CCN(C6CCC6)CC5)cn4)ncc3F)ccc21 [Compound I-21, N-(5-(4-cyclobutylpiperazin-1-yl)-pyridin-2-yl)-5-fluoro-4-(1-isopropyl-2-cyclopentyl-1H-indol-5-yl)pyrimidin-2-amine] |
